Laboratory results: PubChem BioAssay AID330 (DTP/NCI, 2004)
Toxic doses and inconclusive results are not listed. Rule for the calls: active = survival T/C of 150% or more; inactive = T/C below 125% in these data.

Test system: P388 leukemia ip, CD2F1 mice, survival T/C
Assay: NCI In Vivo Anticancer Drug Screen. Data for tumor model P388 Leukemia (intraperitoneal) in CD2F1 (CDF1) mice
Settings: endpoint: median survival time, higher = longer survival
Summary of the method: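 Mice carrying the transplanted tumor received test compound or vehicle. Survival was recorded in each group, and the value is the treated-group measurement divided by that of the vehicle-treated control group.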

[1] = dose: 50.0 mg/kg/injection, schedule: Q01DX009 (ip), vehicle: Klucel (hydroxypropylcellulose) (HPC)
[2] = dose: 100.0 mg/kg/injection, schedule: Q01DX009 (ip), vehicle: Klucel (hydroxypropylcellulose) (HPC)
[3] = dose: 50.0 mg/kg/injection, schedule: Q01DX005 (ip), vehicle: saline with Tween-80
[4] = dose: 100.0 mg/kg/injection, schedule: Q01DX005 (ip), vehicle: saline with Tween-80
[5] = dose: 200.0 mg/kg/injection, schedule: Q01DX005 (ip), vehicle: saline with Tween-80
[6] = dose: 50.0 mg/kg/injection, schedule: Q01DX005 (ip), vehicle: Klucel (hydroxypropylcellulose) (HPC)
[7] = dose: 100.0 mg/kg/injection, schedule: Q01DX005 (ip), vehicle: Klucel (hydroxypropylcellulose) (HPC)
[8] = dose: 200.0 mg/kg/injection, schedule: Q01DX005 (ip), vehicle: Klucel (hydroxypropylcellulose) (HPC)
[9] = dose: 60.0 mg/kg/injection, schedule: Q01DX005 (ip), vehicle: saline with Tween-80
[10] = dose: 120.0 mg/kg/injection, schedule: Q01DX005 (ip), vehicle: saline with Tween-80
[11] = dose: 240.0 mg/kg/injection, schedule: Q01DX005 (ip), vehicle: saline with Tween-80
[12] = dose: 50.0 mg/kg/injection, schedule: Q01DX009 (ip), vehicle: saline with Tween-80
[13] = dose: 100.0 mg/kg/injection, schedule: Q01DX009 (ip), vehicle: saline with Tween-80
[14] = dose: 200.0 mg/kg/injection, schedule: Q01DX009 (ip), vehicle: saline with Tween-80

Measured: T/C

Cc1ccc(OP(=O)(Oc2ccc(C)cc2)Oc2ccc(C)cc2)cc1.Cc1ccc(OP(=O)(Oc2ccc(C)cc2)Oc2ccc(C)cc2)cc1.Cc1ccc(OP(=O)(Oc2ccc(C)cc2)Oc2ccc(C)cc2)cc1.Cc1ccc(OP(=O)(Oc2ccc(C)cc2)Oc2ccc(C)cc2)cc1.[Nd+3].[O-][Cl+3]([O-])([O-])O
inactive: dose: 100.0 mg/kg/injection, schedule: Q01DX001 (ip), vehicle: Klucel (hydroxypropylcellulose) (HPC) 90 % of control | dose: 200.0 mg/kg/injection, schedule: Q01DX001 (ip), vehicle: Klucel (hydroxypropylcellulose) (HPC) 91 % of control | dose: 400.0 mg/kg/injection, schedule: Q01DX001 (ip), vehicle: Klucel (hydroxypropylcellulose) (HPC) 86 % of control

Cc1nnc(Cc2ccco2)c2n[nH]c(C)c12
inactive: [1] 96 % of control | [2] 99 % of control | dose: 200.0 mg/kg/injection, schedule: Q01DX009 (ip), vehicle: Klucel (hydroxypropylcellulose) (HPC) 100 % of control

Oc1c(Cl)c(Cl)c2ncccc2c1Cl
inactive: [3] 102 % of control | [4] 107 % of control | [5] 110 % of control

CCc1[nH]c2ccccc2c1C(=O)c1cccnc1
inactive: dose: 50.0 mg/kg/injection, schedule: Q04DX003 (ip), vehicle: Klucel (hydroxypropylcellulose) (HPC) 101 % of control | dose: 100.0 mg/kg/injection, schedule: Q04DX003 (ip), vehicle: Klucel (hydroxypropylcellulose) (HPC) 97 % of control | dose: 200.0 mg/kg/injection, schedule: Q04DX003 (ip), vehicle: Klucel (hydroxypropylcellulose) (HPC) 100 % of control

Nc1ncc2[nH]cnc2n1
inactive: [6] 102 % of control | [7] 100 % of control | [8] 103 % of control

CCCCCCOCCN1CCN(CCCN2c3ccccc3Sc3ccc(C(F)(F)F)cc32)CC1
inactive: dose: 3.12 mg/kg/injection, schedule: Q01DX009 (ip), vehicle: saline with Tween-80 100 % of control

C1CC[N-]CC1.C1CC[N-]CC1.[Cl][Cd][Cl]
inactive: dose: 0.2 mg/kg/injection, schedule: Q01DX009 (ip), vehicle: water 95 % of control | dose: 0.39 mg/kg/injection, schedule: Q01DX009 (ip), vehicle: water 96 % of control | dose: 0.78 mg/kg/injection, schedule: Q01DX009 (ip), vehicle: other 90 % of control | dose: 0.78 mg/kg/injection, schedule: Q01DX009 (ip), vehicle: water 98 % of control | dose: 1.56 mg/kg/injection, schedule: Q01DX009 (ip), vehicle: other 90 % of control | dose: 3.13 mg/kg/injection, schedule: Q01DX009 (ip), vehicle: other 93 % of control

CCOC(=O)C(=O)/C=C/[C@H]1[C@H](C)CC=C[C@H]1NC(=O)OCc1ccccc1
inactive: [9] 103 % of control | [10] 99 % of control | [11] 97 % of control

Cc1noc2c1NC(=O)OCC2
inactive: [6] 101 % of control | [7] 95 % of control | [8] 97 % of control

O=C(Cn1c(=O)sc2ccc(Cl)cc21)N1CCN(CCO)CC1
inactive: dose: 25.0 mg/kg/injection, schedule: Q01DX009 (ip), vehicle: saline 105 % of control | dose: 50.0 mg/kg/injection, schedule: Q01DX009 (ip), vehicle: saline 105 % of control | dose: 100.0 mg/kg/injection, schedule: Q01DX009 (ip), vehicle: saline 99 % of control | dose: 200.0 mg/kg/injection, schedule: Q01DX009 (ip), vehicle: saline 94 % of control

[CH3][Sn]([CH3])([O]C(=O)c1ccccc1)[O]C(=O)c1ccccc1
inactive: [6] 107 % of control | [7] 108 % of control

O=Cc1ccc(C=O)cc1
inactive: dose: 100.0 mg/kg/injection, schedule: Q04DX002 (ip), vehicle: saline with Tween-80 98 % of control | dose: 200.0 mg/kg/injection, schedule: Q04DX002 (ip), vehicle: saline with Tween-80 102 % of control | dose: 400.0 mg/kg/injection, schedule: Q04DX002 (ip), vehicle: saline with Tween-80 102 % of control

COc1cc(OC)cc(C2OC(N)=C(O)C2=O)c1 (stereo not drawn)
inactive: [6] 93 % of control | [7] 90 % of control | [8] 91 % of control

CSc1nc(NC2OCC(OC(C)=O)C(OC(C)=O)C2OC(C)=O)c(N=CC=Nc2c(NC3OCC(OC(C)=O)C(OC(C)=O)C3OC(C)=O)nc(SC)[nH]c2=O)c(=O)[nH]1 (stereo not drawn)
inactive: [9] 90 % of control | [10] 92 % of control | [11] 89 % of control

COc1c(CCl)c2c(c(OC)c1OC)COC2=O
inactive: [12] 100 % of control | [13] 90 % of control | [14] 116 % of control

O=C(NCc1ccncc1)c1ccccc1
inactive: dose: 100.0 mg/kg/injection, schedule: Q04DX003 (ip), vehicle: saline 104 % of control | dose: 200.0 mg/kg/injection, schedule: Q04DX003 (ip), vehicle: saline 100 % of control | dose: 400.0 mg/kg/injection, schedule: Q04DX003 (ip), vehicle: saline 106 % of control

CCOC(=O)Nc1ccc2nc(Sc3ccc(Cl)cc3)sc2c1
inactive: [12] 103 % of control | [13] 100 % of control | [14] 106 % of control

CCN(Cc1cccc(S(=O)(=O)O)c1)c1ccc(C(=C2C=CC(=[N+](CC)Cc3cccc(S(=O)(=O)O)c3)C=C2)c2ccccc2Cl)cc1
inactive: [3] 103 % of control | [4] 99 % of control | [5] 110 % of control

CCCCSc1nc2ccc(N=Cc3ccccc3O)cc2s1
inactive: [1] 103 % of control | [2] 99 % of control

CC1=NN(C(=O)c2ccc(Cl)cc2)C(=O)C1N=Nc1ccc(S(=O)(=O)Nc2ncccn2)cc1 (stereo not drawn)
inactive: [3] 94 % of control | [4] 97 % of control | [5] 87 % of control

CN1c2ccc(Br)c[c]2[Sn]2([c]3cc(Br)ccc31)[c]1cc(Br)ccc1N(C)c1ccc(Br)c[c]12
inactive: [9] 95 % of control | [10] 98 % of control | [11] 92 % of control
